According to ChEMBL document CHEMBL1201862, “PubChem BioAssay data set” (2004):
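Following 48 hours of exposure in 96-well plates, responses at five concentrations were used to interpolate endpoints linearly. GI50 marks 50% less growth.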 Calls of active or inactive are those of the source. No stated cut-off is given here; in the data, active = GI50 up to about 1.1 µM and inactive = higher.

Assays:
Experiment in all cases: NCI anticancer screen, dose series, 48 h
NCI-H460 = system: NCI-H460
NCI-H23 = system: NCI-H23
SF-295 = system: SF-295
OVCAR-8 = system: OVCAR-8
T47D = system: T47D
786-0 = system: 786-0
OVCAR-4 = system: OVCAR-4
SN12C = system: SN12C
DU-145 = system: DU-145
HOP-62 = system: HOP-62
SF-539 = system: SF-539
SK-MEL-28 = system: SK-MEL-28
LOX IMVI = system: LOX IMVI
CCRF-CEM = system: CCRF-CEM
NCI/ADR-RES = system: NCI/ADR-RES
NCI-H226 = system: NCI-H226
U-251 = system: U-251
A498 = system: A498
IGROV-1 = system: IGROV-1
RPMI-8226 = system: RPMI-8226
PC-3 = system: PC-3
UACC-62 = system: UACC-62
OVCAR-3 = system: OVCAR-3
SNB-75 = system: SNB-75
UO-31 = system: UO-31
SF-268 = system: SF-268
SK-MEL-2 = system: SK-MEL-2
ACHN = system: ACHN
MDA-MB-231 = system: MDA-MB-231
NCI-H522 = system: NCI-H522
KM12 = system: KM12
MDA-N = system: MDA-N
HL-60 = system: HL-60
TK-10 = system: TK-10
SW-620 = system: SW-620
A549 = system: A549
HCT-15 = system: HCT-15
K562 = system: K562
Hs-578T = system: Hs-578T
HCT-116 = system: HCT-116
UACC-257 = system: UACC-257
RXF 393 = system: RXF 393
Malme-3M = system: Malme-3M
COLO 205 = system: COLO 205
MCF7 = system: MCF7
BT-549 = system: BT-549
HOP-92 = system: HOP-92
SK-MEL-5 = system: SK-MEL-5
SNB-19 = system: SNB-19
SR = system: SR
MOLT-4 = system: MOLT-4
EKVX = system: EKVX
M14 = system: M14
MDA-MB-435 = system: MDA-MB-435
CAKI-1 = system: CAKI-1
HT-29 = system: HT-29
OVCAR-5 = system: OVCAR-5
SK-OV-3 = system: SK-OV-3
HCC 2998 = system: HCC 2998

SMILES: O=C(OCc1ccccc1)c1ccc(NCc2cc(O)ccc2O)cc1
- GI50 (NCI-H460): 3.42 µM (inactive)
- GI50 (NCI-H23): 1.53 µM (inactive)
- GI50 (SF-295): 6.12 µM (inactive)
- GI50 (OVCAR-8): 1.42 µM (inactive)
- GI50 (T47D): 1.51 µM (inactive)
- GI50 (786-0): 1.11 µM (active)
- GI50 (OVCAR-4): 1.39 µM (inactive)
- GI50 (SN12C): 1.38 µM (inactive)
- GI50 (DU-145): 3.15 µM (inactive)
- GI50 (HOP-62): 7.43 µM (inactive)
- GI50 (SF-539): 0.902 µM (active)
- GI50 (SK-MEL-28): 1.63 µM (inactive)
- GI50 (LOX IMVI): 1.14 µM (inactive)
- GI50 (CCRF-CEM): 0.308 µM (active)
- GI50 (NCI/ADR-RES): 1.47 µM (inactive)
- GI50 (NCI-H226): 2.42 µM (inactive)
- GI50 (U-251): 1.29 µM (inactive)
- GI50 (A498): 1.09 µM (active)
- GI50 (IGROV-1): 1.23 µM (inactive)
- GI50 (RPMI-8226): 0.372 µM (active)
- GI50 (PC-3): 1.36 µM (inactive)
- GI50 (UACC-62): 1.56 µM (inactive)
- GI50 (OVCAR-3): 1 µM (active)
- GI50 (SNB-75): 0.906 µM (active)
- GI50 (UO-31): 1.32 µM (inactive)
- GI50 (SF-268): 1.36 µM (inactive)
- GI50 (SK-MEL-2): 2.05 µM (inactive)
- GI50 (ACHN): 1.43 µM (inactive)
- GI50 (MDA-MB-231): 1.91 µM (inactive)
- GI50 (NCI-H522): 0.35 µM (active)
- GI50 (KM12): 1.52 µM (inactive)
- GI50 (MDA-N): 1.56 µM (inactive)
- GI50 (HL-60): 0.303 µM (active)
- GI50 (TK-10): 1.95 µM (inactive)
- GI50 (SW-620): 1.67 µM (inactive)
- GI50 (A549): 3.9 µM (inactive)
- GI50 (HCT-15): 1.03 µM
- GI50 (K562): 1.29 µM (inactive)
- GI50 (Hs-578T): 1.51 µM (inactive)
- GI50 (HCT-116): 1.51 µM (inactive)
- GI50 (UACC-257): 1.6 µM (inactive)
- GI50 (RXF 393): 1.07 µM (active)
- GI50 (Malme-3M): 1.56 µM (inactive)
- GI50 (COLO 205): 1.47 µM (inactive)
- GI50 (MCF7): 2.01 µM (inactive)
- GI50 (BT-549): 0.713 µM (active)
- GI50 (HOP-92): 0.867 µM (active)
- GI50 (SK-MEL-5): 1.52 µM (inactive)
- GI50 (SNB-19): 2.85 µM (inactive)
- GI50 (SR): 0.247 µM (active)
- GI50 (MOLT-4): 0.535 µM (active)
- GI50 (EKVX): 1.75 µM (inactive)
- GI50 (M14): 1.91 µM (inactive)
- GI50 (MDA-MB-435): 1.58 µM (inactive)
- GI50 (CAKI-1): 0.575 µM (active)
- GI50 (HT-29): 6.24 µM (inactive)
- GI50 (OVCAR-5): 3.85 µM (inactive)
- GI50 (SK-OV-3): 2.7 µM (inactive)
- GI50 (HCC 2998): 2.15 µM (inactive)

SMILES: CC1OC(OC2C(Oc3cc(O)c4c(c3)O[C@H](c3ccc(O)cc3)CC4=O)OC(CO)C(O)C2O)C(O)C(O)C1O (stereo partly specified)
- GI50 (NCI-H23): > 100 µM (inactive)
- GI50 (SF-295): > 100 µM (inactive)
- GI50 (OVCAR-8): > 100 µM (inactive)
- GI50 (T47D): > 100 µM (inactive)
- GI50 (786-0): > 100 µM (inactive)
- GI50 (OVCAR-4): > 100 µM (inactive)
- GI50 (SN12C): > 100 µM (inactive)
- GI50 (DU-145): > 100 µM (inactive)
- GI50 (HOP-62): > 100 µM (inactive)
- GI50 (SF-539): > 100 µM (inactive)
- GI50 (SK-MEL-28): > 100 µM (inactive)
- GI50 (LOX IMVI): > 100 µM (inactive)
- GI50 (CCRF-CEM): > 100 µM (inactive)
- GI50 (NCI/ADR-RES): > 100 µM (inactive)
- GI50 (NCI-H226): > 100 µM (inactive)
- GI50 (U-251): > 100 µM (inactive)
- GI50 (A498): > 100 µM (inactive)
- GI50 (IGROV-1): > 100 µM (inactive)
- GI50 (RPMI-8226): > 100 µM (inactive)
- GI50 (PC-3): > 100 µM (inactive)
- GI50 (UACC-62): > 100 µM (inactive)
- GI50 (OVCAR-3): > 100 µM (inactive)
- GI50 (SNB-75): > 100 µM (inactive)
- GI50 (UO-31): > 100 µM (inactive)
- GI50 (SF-268): > 100 µM (inactive)
- GI50 (SK-MEL-2): > 100 µM (inactive)
- GI50 (ACHN): > 100 µM (inactive)
- GI50 (MDA-MB-231): > 100 µM (inactive)
- GI50 (NCI-H522): > 100 µM (inactive)
- GI50 (KM12): > 100 µM (inactive)
- GI50 (MDA-N): > 100 µM (inactive)
- GI50 (HL-60): > 100 µM (inactive)
- GI50 (TK-10): > 100 µM (inactive)
- GI50 (SW-620): > 100 µM (inactive)
- GI50 (A549): > 100 µM (inactive)
- GI50 (HCT-15): > 100 µM
- GI50 (Hs-578T): > 100 µM (inactive)
- GI50 (HCT-116): > 100 µM (inactive)
- GI50 (UACC-257): > 100 µM (inactive)
- GI50 (RXF 393): > 100 µM (inactive)
- GI50 (Malme-3M): > 100 µM (inactive)
- GI50 (COLO 205): > 100 µM (inactive)
- GI50 (MCF7): > 100 µM (inactive)
- GI50 (BT-549): > 100 µM (inactive)
- GI50 (HOP-92): > 100 µM (inactive)
- GI50 (SK-MEL-5): > 100 µM (inactive)
- GI50 (SR): > 100 µM (inactive)
- GI50 (MOLT-4): > 100 µM (inactive)
- GI50 (EKVX): > 100 µM (inactive)
- GI50 (M14): > 100 µM (inactive)
- GI50 (MDA-MB-435): > 100 µM (inactive)
- GI50 (CAKI-1): > 100 µM (inactive)
- GI50 (HT-29): > 100 µM (inactive)
- GI50 (OVCAR-5): > 100 µM (inactive)
- GI50 (SK-OV-3): > 100 µM (inactive)
- GI50 (HCC 2998): > 100 µM (inactive)

SMILES: O=c1[nH]/c(=C/c2ccc(OCc3ccccc3)cn2)c(=O)[nH]/c1=C/c1cccnc1
- GI50 (NCI-H460): 0.41 µM (active)
- GI50 (NCI-H23): 0.423 µM (active)
- GI50 (SF-295): 0.284 µM (active)
- GI50 (OVCAR-8): 1.08 µM (active)
- GI50 (T47D): 0.458 µM (active)
- GI50 (786-0): 0.474 µM (active)
- GI50 (OVCAR-4): 1.25 µM (inactive)
- GI50 (SN12C): 0.417 µM (active)
- GI50 (DU-145): 0.585 µM (active)
- GI50 (HOP-62): 0.497 µM (active)
- GI50 (SF-539): 0.401 µM (active)
- GI50 (LOX IMVI): 1.95 µM (inactive)
- GI50 (CCRF-CEM): 0.537 µM (active)
- GI50 (NCI/ADR-RES): 0.345 µM (active)
- GI50 (NCI-H226): 0.904 µM (active)
- GI50 (U-251): 0.581 µM (active)
- GI50 (A498): 0.209 µM (active)
- GI50 (IGROV-1): 0.908 µM (active)
- GI50 (RPMI-8226): 0.628 µM (active)
- GI50 (PC-3): 0.423 µM (active)
- GI50 (UACC-62): 0.192 µM (active)
- GI50 (OVCAR-3): 0.23 µM (active)
- GI50 (SNB-75): 0.452 µM (active)
- GI50 (SF-268): 0.542 µM (active)
- GI50 (SK-MEL-2): 0.38 µM (active)
- GI50 (ACHN): 0.728 µM (active)
- GI50 (MDA-MB-231): 1.92 µM (inactive)
- GI50 (NCI-H522): 0.182 µM (active)
- GI50 (KM12): 0.308 µM (active)
- GI50 (MDA-N): 0.106 µM (active)
- GI50 (HL-60): 0.117 µM (active)
- GI50 (TK-10): 2.18 µM (inactive)
- GI50 (SW-620): 0.42 µM (active)
- GI50 (A549): 0.804 µM (active)
- GI50 (HCT-15): 0.254 µM
- GI50 (K562): 0.318 µM (active)
- GI50 (Hs-578T): 0.526 µM (active)
- GI50 (HCT-116): 0.342 µM (active)
- GI50 (RXF 393): 0.574 µM (active)
- GI50 (Malme-3M): 0.25 µM (active)
- GI50 (COLO 205): 2.07 µM (inactive)
- GI50 (MCF7): 0.378 µM (active)
- GI50 (BT-549): 14.2 µM (inactive)
- GI50 (HOP-92): > 35.2 µM (inactive)
- GI50 (SK-MEL-5): 0.226 µM (active)
- GI50 (SNB-19): 0.718 µM (active)
- GI50 (SR): 0.5 µM (active)
- GI50 (MOLT-4): 0.361 µM (active)
- GI50 (EKVX): 1.65 µM (inactive)
- GI50 (M14): 0.344 µM (active)
- GI50 (MDA-MB-435): 0.0845 µM (active)
- GI50 (CAKI-1): 0.479 µM (active)
- GI50 (HT-29): 0.759 µM (active)
- GI50 (OVCAR-5): 1.39 µM (inactive)
- GI50 (SK-OV-3): 0.703 µM (active)
- GI50 (HCC 2998): 1.19 µM (inactive)
